These are literature values, as cited in patent publication US20160287532A1 (SignPath Pharma Inc., priority 2015, published 2016).

For series [1], the system named is IL-6. The conditions noted are these: IVD cells pre-treated with IL-1β.
Series [2] has as its system IL-8. The following applies: IVD cells pre-treated with IL-1β.
Series [3] concerns MMP-1. The following applies: IVD cells pre-treated with IL-1β.
The subject of series [4] is MMP-3. The conditions noted are these: IVD cells pre-treated with IL-1β.
Series [5] relates to MMP-13. The following applies: IVD cells pre-treated with IL-1β.
Series [6] relates to MMP-1. The following applies: treated IVD samples.
The subject of series [7] is MMP-3. The conditions noted are these: after treatment; decreased from 0.9 ng/mg tissue.
In series [8] the test system is IL-6. The conditions noted are these: 10 μM EGCG, IL-1β stimulated.
Series [9] has as its system IL-8. The conditions noted are these: 10 μM EGCG, IL-1β stimulated.
The next series concerns COX-2. The following applies: 10 μM EGCG, IL-1β stimulated.
The test system of series [10] is MMP-1. The following applies: 10 μM EGCG, IL-1β stimulated.
The test system of series [11] is MMP-3. The conditions noted are these: 10 μM EGCG, IL-1β stimulated.
Series [12] concerns MMP-13. The conditions noted are these: 10 μM EGCG, IL-1β stimulated.

With `Oc1ccc(C=Cc2cc(O)cc(O)c2)cc1` [Resveratrol, resveratrol], the “levels of IL-6” value with IL-6 [1] is “reduced”. Moreover, the “levels of IL-8” value with IL-8 [2] is “reduced”. Also, the “levels of MMP-1” value in the series on MMP-1 [3] was “reduced”. Also, the “levels of MMP-3” value with MMP-3 [4] was “reduced”. In addition, the “levels of MMP-13” value in the series on MMP-13 [5] was “reduced”.

As to “IL-1Ra: recombinant interleukin-1 receptor antagonist”, the “effect on MMP-1 concentration” value with MMP-1 [6] is “no effect”. For the same compound, the “concentration of total MMP-3 activity” value with MMP-3 [7] is 0.35 ng/mg tissue.

With epigallocatechin 3-gallate [EGCG], in the series on IL-6 [8], the “expression of IL-6” value is “inhibited”. Also, the “expression of IL-8” value in the series with IL-8 [9] was “inhibited”. The “expression of COX-2” value in the series on COX-2 is given as “inhibited”. In addition, in the series with MMP-1 [10], the “expression of MMP-1” value is on record as “inhibited”. Moreover, the “expression of MMP-3” value with MMP-3 [11] is “inhibited”. Further, the “expression of MMP-13” value with MMP-13 [12] is on record as “inhibited”.
